“Also recorded” adds a separate entry of the source. Like-named read-outs stand apart in the source and are kept apart here. Where a SMILES comes first, the peptide text is derived from it. [ ]: non-standard residue; d: D form. The star is where a group is joined. Hexanoyl = CCCCCC(=O)*; Ahx = NCCCCCC(=O)O
What was measured:
[1] = test system: aged rats; experiment: Morris water maze, aged rat model; type: in vivo; conditions: oral 2 mg/kg/day, 8 days, vs untreated
Protocol: FIG. 37. Dihexa improves spatial learning in aged rats. Group latencies to find the submerged platform in the Morris water maze task of spatial memory are shown. Five minutes before beginning testing 24 month old mixed sex (3 male and 3 female/group) Sprague Dawley rats were administered […] (2 mg/kg) orally by gavage (suspension in isotonic NaCl), on a daily basis. There were 5 trials per day for 8 days. The latency to find the pedestal was considered a measure of learning and memory. […] Swim speed was determined from these values.

[2] = test system: MDCK cells; experiment: Augmentation of HGF-dependent cell scattering in MDCK cells; type: cell-based, canine
Protocol: HGF mimetic activity was typically assessed by one or both of two methods: augmentation of HGF-dependent c-Met phosphorylation in HEK293 cells, or 2) augmentation of HGF-dependent cell scattering in MDCK cells. All the compounds in Family one were tested using the c-Met phosphorylation assay. […]
MDCK cells were grown to 100% confluency on the coverslips in six-well plates and washed twice with PBS. The confluent coverslips were then aseptically transferred to new six well plates containing 900 μl serum free DMEM. Norleual, Hinge peptide, and/or HGF (2.5 ng/ml) were added to appropriate wells. Control wells received PBS vehicle. Plates were incubated at 37° C. with 5% CO2 for 48 hours. Media was removed and cells were fixed with methanol. Cells were stained with Diff-Quik Wright-Giemsa (Dade-Behring, Newark, Del.) and digital images were taken. Coverslips were removed with forceps and more digital images were captured. Pixel quantification of images was achieved using Image J and statistics were performed using Prism 5 and InStat v.3.05.

[3] = test system: hippocampal neurons; experiment: Spinogenesis in mRFP-β-actin transfected dissociated hippocampal neurons; type: cell-based, rat; conditions: 10^−12 M, acute 30 minute application on DIV12; vehicle 17.4

CCCCCC(=O)N[C@@H](Cc1ccc(O)cc1)C(=O)N[C@H](C(=O)NCCCCCC(N)=O)[C@@H](C)CC [Dihexa, N-hexanoic-Tyr-Ile-(6)-aminohexanoic amide] (Hexanoyl-Tyr-Ile-[Ahx]-NH2)
water maze performance (latency) of aged rats [1]: preformed significantly better in the water maze than untreated rats; also recorded: performed significantly better than untreated controls; also recorded: significantly different than that of the non-treated rats
augmentation of HGF-dependent MDCK cell scattering [2]: stimulate MDCK cell scattering
augmentation of HGF-dependent MDCK cell scattering ([2]; listed as N-hexanoyl-Tyr-Ile-(6) aminohexamide): spectacularly augment HGF-dependent MDCK cell scattering
mean spine numbers per 50 μm dendrite length [3]: 23.9 spines per 50 μm dendrite length
